Reference: US9028855B2, “Plant additives and uses thereof to modulate the synthesis of membrane glycerolipids in planta” (Commissariat a l'Energie Atomique et aux Energies …, priority 2009, dated 2015)
“Also recorded” adds a separate entry of the source.

Tests used:
[1] = test system: phopholipase Dz2; assay: PLDz::GUS, follow-up of the expression of the gene encoding phospholipase Dz2 (GUS staining); type: in vivo, A. thaliana; conditions: summary over PLDz::GUS and MGD3::GUS; specific = without impact on growth or PHT1;4
Protocol: pPLDZ2:GUS-GFP cell line is as described by Cruz-Ramirez et al. (Cruz-Ramirez et al., 2006), and expressed a GUS-GFP fusion under the control of the pldz2 promoter. […] Plants were examined for GUS activity by dipping the samples in a GUS staining solution (50 mM sodium phosphate buffer pH 7.0; 0.01% Triton X-100, 1 mM K3Fe(CN)6, 1 mM K4Fe(CN)6, 1 mg/ml 5-dromo-4-chloro-3-indolyl (3-D-GLUCURONIDE (X-Gluc A) and incubated at 37° C. over-night. After staining, the plants were fixed 2 hours in 50 mM sodium phosphate buffer pH 7.0; 1% glutaraldehyde; 4% formaldehyde. In response to phosphate starvation, the lipid metabolism is modified (Benning and Ohta, 2005). Plants preferentially synthesize sulpho- and galacto-lipids instead of phospholipids. Several enzymes are involved in this remobilisation.

[2] = test system: A. thaliana; assay: Root growth (primary root) of plants on high phosphate medium supplied with compound; type: in vivo; conditions: expressed as a percentage having regard to a control; +P control 100, −P 20
Excerpt: In response to phosphate starvation, the primary root growth is inhibited (Svistoonoff et al., 2007).

[3] = test system: wild type seedlings; assay: Anthocyanins content (spectrophotometric); type: in vivo, A. thaliana; set-up: key to Antho: anthocyanin content as A530 - 2.2*A652; conditions: accumulation of anthocyanes; +P control 46, −P 1008
Protocol: Anthocyanins were extracted with propanol:HCl:H2O (81:1:18) for 5 min at room temperature and 3 min at 100° C. Samples are centrifuged for 10 min at 4° C. Supernatants were collected and absorption measured at 530 nm and […]. Anthocyanin content was calculated as A530-2.2A652 (Lange et al., 1971).

Row | Compound | lipid metabolism: induction of PLDζ2 and/or MGD3 genes (in words) [1] | Root Growth [2] | Antho [3]
1 | CC1CC(=O)C(=CNc2ccccc2)C(=O)C1 (stereo not drawn) [#29] | impact specifically the lipid metabolism inducing PLD[…]2 and MGD3; also recorded: specificity in lipids remodeling | 85 % of control | 146
2 | CC(Nc1ccc(Br)cc1)=C1C(=O)CC(C)(C)CC1=O [#21] | impact specifically the lipid metabolism inducing PLD[…]2 and MGD3 | 93 % of control | 146
3 | CC1(C)CC(=O)C(=CNc2ccc(N)cc2)C(=O)C1 [#42] | impact specifically the lipid metabolism inducing PLD[…]2 and MGD3; also recorded: specificity in lipids remodeling | 68 % of control | 226
4 | O=C1CCCC(=O)C1=CNc1ccc(Br)cc1 [#45] | impact specifically the lipid metabolism inducing PLD[…]2 and MGD3; also recorded: specificity in lipids remodeling | 67 % of control | 106
5 | COc1cccc(NC=C2C(=O)CCCC2=O)c1 [#41] | impact specifically the lipid metabolism inducing PLD[…]2 and MGD3; also recorded: specificity in lipids remodeling | 65 % of control | 111
6 | O=C1CCCC(=O)C1=CNc1ccccc1 [#23] | specificity in lipids remodeling | 100 % of control | 42
7 | CC1(C)CC(=O)C(=C(S)Nc2ccccc2)C(=O)C1 [#31] | impact specifically the lipid metabolism inducing PLD[…]2 and MGD3; also recorded: specificity in lipids remodeling | 89 % of control | 62
8 | CC1(C)CC(=O)C(=CNc2ccc3c(c2)OCO3)C(=O)C1 [#30] | impact specifically the lipid metabolism inducing PLD[…]2 and MGD3; also recorded: specificity in lipids remodeling | 65 % of control | 189
9 | CC1(C)CC(=O)C(=CNc2ccccc2N)C(=O)C1 [#40] | specificity in lipids remodeling | 85 % of control | 65
10 | COc1ccc(NC=C2C(=O)CCCC2=O)cc1 [#46] | specificity in lipids remodeling | 70 % of control | 167
